This is an account of results in patent publication US6593335B1, “Potassium channel openers” (Abbott Laboratories, priority 1997, dated 2003).

For this experiment, the target named is potassium channels (Sus scrofa, UniProt F1SR11). Description: Functional potassium channel opening activity in isolated Landrace pig bladder strips (field-stimulated twitch). The conditions noted are these: for Landrace Pig Bladder Index: ED50 for P1075 divided by ED50 for the test agonist, averaged over tissues; for Landrace Pig Bladder pD2: negative logarithm of ED50; for Emax: pig; for Emax / Landrace Pig Bladder Efficacy (% P1075): maximal efficacy relative to P1075, field stimulation 0.05Hz, 0.5 milli-seconds at 20 volts. The procedure:
The entire bladder was removed and ed into Krebs Ringer bicarbonate solution (composition, mM: NaCl,; dextrose, 1; KCl, 4.7; […] Propranolol (0.004 ed in all of the assays to block […]. The trigonal and dome […]. Strips 3-5 mm wide and 20 mm long were prepared from the cut in a circular fashion. The mucosal layer was removed. One end ationary glass rod and the other to a Grass FT03 transducer at a basal am. Two parallel platinum electrodes were included in the stationary ide field stimulation of 0.05Hz, 0.5 milli-seconds at 20 volts. […] Tissues were allowed to equilibrate for at least 60 minutes and primed with 80 mM KCl. A control concentration response curve (cumulative) was generated for each tissue using the potassium channel opener […] as the control agonist. […] After a 60 minute rinsing period, a concentration response curve (cumulative) was generated for the test agonist in the same fashion as that used for the control agonist […]. The maximal efficacy of each compound (expressed as % relative to […]) is reported. […] J. Physiol. 235, E97 (1980)), and agonist potencies were expressed as pD2 (the negative logarithm). Agonist potencies were also expressed as an index relative to […]. The index was calculated by dividing the ED50 for […] by the ED50 for the test agonist in a given tissue. Each tissue was used for only one test agonist, and the indices obtained from each tissue were averaged to provide an average index of potency.

A word on the Emax: it is the maximal effect, on the per cent scale that the assay sets. As for `O=C1CCCC2=C1C(c1cc(Br)cs1)C1=C(CCS1(=O)=O)N2` (single isomer, unassigned) [Example 180, 9-(4-bromo-2-thienyl)-2,3 5,6,7,9-hexahydrothieno[3 2-b]quinolin-8(4H)-one 1,1-dioxide], the “Landrace Pig Bladder Index” value is 0.036, the “Landrace Pig Bladder pD2” value was 5.5 and the maximal response (Emax) worked out at 71%.
On the same counts, the results for `O=C1CCCC2=C1C(c1ccc(Cl)c(Cl)c1)C1=C(CCS1(=O)=O)N2` (single isomer, unassigned; (+)) [Example 95, (+)-9-(3,4-dichlorophenyl)-2,3,5,6,7,9-hexahydrothieno[3,2-b]quinolin-8(4H)-one, 1,1-dioxide] are 0.12, 5.6 and 84%.
In the same order, the values of `O=C1CCC2=C1C(c1ccc(Br)c(Br)c1)C1=C(CCS1(=O)=O)N2` (stereo not drawn) [Example 72] are 0.53, 6.6 and 97%.
Regarding `O=C1CCCC2=C1C(c1ccc(Cl)c(Cl)c1)C1=C(CCS1(=O)=O)N2` (single isomer, unassigned; (-)) [Example 96, (−)-9-(3,4-dichlorophenyl)-2,3,5,6,7,9-hexahydrothieno[3,2-b]guinolin-8(4H)-one, 1,1-dioxide], the “Landrace Pig Bladder Index” value was found to be 0.37, the “Landrace Pig Bladder Efficacy (% P1075)” value is 97 % P1075 and the “Landrace Pig Bladder pD2” value came out at 6.5.
As to `O=C1CCCC2=C1C(c1ccc(F)c(I)c1)C1=C(CCS1(=O)=O)N2` (single isomer, unassigned) [Example 149, 9-(4-fluoro-3-iodophenyl)-2,3,5,6,7,9-hexahydrothieno[3 2-b]quinolin-8(4H)-one, 1,1-dioxide], the “Landrace Pig Bladder Index” value worked out at 1.2, the “Landrace Pig Bladder pD2” value came to 6.6 and the Emax was determined as 80%.
For `O=[N+]([O-])c1cc(C2C3=C(CCS3(=O)=O)NC3=C2S(=O)(=O)CC3)ccc1Cl` [Example 51, 8-(4-chloro-3-nitrophenyl)-2,3,4,5,6,8-hexahydrodithieno [3,2-b:2′,3′-e]pyridine, 1,1 7,7-tetraoxide], the “Landrace Pig Bladder Index” value is 0.021, the “Landrace Pig Bladder pD2” value was 5.4 and the Emax was 99%.
On the same counts, the results for `O=C1CCCC2=C1C(c1ccc3nonc3c1)C1=C(CCS1(=O)=O)N2` (single isomer, unassigned; (+)) [Example 97, (+)-9-(2. 1,3-benzoxadiazol-5-yl)-2,3,5,6,7,9-hexahydrothieno[3.2-b]quinolin-8(4H)-one, 11-dioxide] are 0.059, 5.7 and 100%.
Consider `O=C1CCCC2=C1C(c1ccc(F)c(-c3ccco3)c1)C1=C(CCS1(=O)=O)N2` (single isomer, unassigned) [Example 165, 9-[4-fluoro-3-(2-fMrIl)phenyl]-2,3,5,6,7,9-hexahydrothieno[3,2-b]quinolin-8(4H)-one, 1,1-dioxide], for which the “Landrace Pig Bladder Index” value came to 0.035, the “Landrace Pig Bladder pD2” value turned out to be 5.8 and the maximal response (Emax) was 94%.
For the compound `CC1=C(S(C)(=O)=O)C(c2ccc(F)c(Br)c2)C2=C(CCCC2=O)N1` (stereo not drawn) [Example 25, 4-(3-bromo-4-fluorophenyl)-4,6,7,8-tetrahydro-2-methyl-3-(methylsulfonyl)-5(1H)-guinolinone], the “Landrace Pig Bladder Index” value came to 0.038, the “Landrace Pig Bladder pD2” value was found to be 5.4 and the Emax was 88%.
On the same counts, the results for `N#Cc1cccc(C2C3=C(CCCC3=O)NC3=C2S(=O)(=O)CCC3)c1` (stereo not drawn) [Example 5, 10-(3-cyanophenyl)-3,4,6,7,8,10-hexahydro-2H-thiopyrano [3,2-b]quinolin-9(5H)-one, 1,1-dioxide] are 0.0076, 4.8 and 96%.
Turning to `O=C1CCC2=C1C(c1ccc(F)c(Br)c1)C1=C(CCCS1(=O)=O)N2` (single isomer, unassigned; (+)) [Example 91], the “Landrace Pig Bladder Index” value is listed as 0.0034, the “Landrace Pig Bladder pD2” value turned out to be 4.6 and the maximal effect (Emax) was found to be 95%.
In the same order, the values of `O=C1CCCC2=C1C(c1ccc(Cl)c(Cl)c1)C1=C(CCCS1(=O)=O)N2` (stereo not drawn) [Example 2] are 0.15, 6.2 and 96%.
Regarding `CC1=C(S(C)(=O)=O)C(c2cc(F)c(F)c(F)c2)C2=C(CCCC2=O)N1` (stereo not drawn) [Example 22, 4-(3,4,5-trifluorophenyl)-4,6,7,8-tetrahydro-2-methyl-3-(methylsulfonyl)-5(1H)-quinolinone], the “Landrace Pig Bladder Index” value was found to be 0.0069, the “Landrace Pig Bladder pD2” value was determined as 4.5 and the Emax stood at 77%.
On the same counts, the results for `N#Cc1cccc(C2C3=C(CCCC3=O)NC3=C2S(=O)(=O)CC3)c1` (single isomer, unassigned; (-)) [Example 114, (−)-9-(3-cyanophenyl)-2,3,5,6,7,9-hexahydrothieno[3,2-b]quinolin-8(4H)-one, 1,1-dioxide] are 0.014, 4.9 and 97%.
As to `O=C1CCC2=C1C(c1ccc(Cl)c(Cl)c1)C1=C(CCS1(=O)=O)N2` (single isomer, unassigned) [Example 146], the “Landrace Pig Bladder Index” value worked out at 0.40, the “Landrace Pig Bladder pD2” value was found to be 6.7 and the maximal response (Emax) came to 100%.
As to `CC(=O)C1=C(C)NC2=C(C1c1ccc(Cl)c([N+](=O)[O-])c1)S(=O)(=O)CCC2` (stereo not drawn) [Example 36], the “Landrace Pig Bladder Index” value is given as 0.040, the “Landrace Pig Bladder pD2” value worked out at 5.5 and the Emax stood at 97%.
On the same counts, the results for `O=C1CCCC2=C1[C@@H](c1ccc(F)c(Br)c1)C1=C(CCS1(=O)=O)N2` [Example 83, (+)-(9R)-9-(3-bromo-4-fluorophenyl)-2,3,5,6,7,9-hexahydrothieno [3.2-b]guinolin-8(4H)-one, 1,1-dioxide] are 0.57, 7.0 and 100%.
Turning to `O=C1CCC2=C1C(c1ccc(F)c(Br)c1)C1=C(CCS1(=O)=O)N2` (single isomer, unassigned; (-)) [Example 86], the “Landrace Pig Bladder Index” value is on record as 0.069, the “Landrace Pig Bladder pD2” value turned out to be 6.5 and the Emax came to 100%.
In the same order, the values of `O=S1(=O)CCC2=C1C(c1ccc(F)c(Br)c1)C=C(C(F)(F)F)N2` (single isomer, unassigned) [Example 136, 7-(3-bromo-4-fluorophenyl)-5-(trifluoromethyl)-2, 3 4 7-tetrahydrothieno[3 2-b]pyridine, 1,1-dioxide] are 0.073, 5.9 and 92%.
For the compound `O=C1CCC2=C1C(c1ccc(F)c(Br)c1)C1=C(CCCS1(=O)=O)N2` (single isomer, unassigned; (-)) [Example 92], the “Landrace Pig Bladder Index” value is on record as 0.44, the “Landrace Pig Bladder Efficacy (% P1075)” value is 100 % P1075 and the “Landrace Pig Bladder pD2” value was determined as 6.5.
